Measurements reported in patent US20110207745A1 (priority 2009, published 2011).
Structures can show the parent of a compound that is named as a salt. Where two headings read alike, the source gives them in different places.

Assays:
[1] = Intrinsic dissolution rate in simulated biological media; format: physicochemical
Method: Intrinsic dissolution rate is determined at 37° C. using a Distek Dissolution System model 5100A with a sample size of approximately 200 mg (0.5 cm^2 disc) and 500 mL dissolution medium. The paddle speed is set to 500 rpm and the paddle height to approximately 2.54 cm above the disc surface. The concentration of sample in solution is determined by HPLC.

[2] = Solubility in simulated biological media; format: physicochemical; conditions: mean ± SD, n = 2
From the text: Solubility and Dissolution Rate Data.
Solubility and Dissolution Rate Data. […]

[3] = format: physicochemical; conditions: water vapor sorption, typical laboratory humidity (55% RH)
Method: Data are collected on a VTI SGA-100 moisture balance system. For sorption isotherms, a sorption range of about 0% to about 90% relative humidity (RH) and a desorption range of about 90 to about 0% RH in 10% RH increments are used for analysis. The samples are not dried prior to analysis. Equilibrium criteria used for analysis are less than 0.0100% weight change in 5 minutes with a maximum equilibration time of 3 hours if the weight criterion is not met. Data are not corrected for the initial moisture content of the samples.
The amorphous material was placed into preset RH conditions (50% and 75% RH) for 24 hours to check dynamic moisture absorption as well as deliquescence.

[4] = Plasma exposure of efficacious doses in rodents; format: in vivo; conditions: separate tests of anxiolysis and antidepressant activity
[5] = Method: Stress Experiments. Solids are stressed under different temperature or relative humidity (RH) environments for a measured time period. Specific RH values are achieved by placing the sample inside sealed chambers containing saturated salt solutions, as known in the art. The salt solutions are selected and prepared following an ASTM standard procedure. Samples are analyzed by XRPD immediately after removal from the stress environment.
Analyses are carried out on an Agilent® model 1100 high performance liquid chromatograph using gradient elution on a reversed phase column utilizing ultraviolet (UV) detection. Approximately 25 mg of the sample is weighed accurately and dissolved in methanol/water/trifluoroacetic acid (35:65:0.05) to a volume of 50 mL. The sample solution is analysed using the conditions specified below:
The content of the drug and related substances are quantified by area (%).
Chemical Stability. The chemical stability of Form I of the mono-HCl salt of Compound A1 was assessed by stressing the material at various temperature/relative humidity/light conditions, then analyzing by HPLC.
Chemical Stability Data. The chemical stability of a sample of Form I of the sesquifumarate salt of Compound A1 was assessed by stressing the material at various temperature/relative humidity/light conditions, then analyzing by HPLC.

[6] = 0.1M phosphate buffer, initial pH 7.5
[7] = FaSSIF (fasted-state simulated intestinal fluid), initial pH 6.51
[8] = FeSSIF (fed-state simulated intestinal fluid), initial pH 5.03
[9] = SGF (simulated gastric fluid), initial pH 1.3
[10] = Ultraviolet light, 25° C./60% RH, 2x ICH (2 days), stored open
[11] = Ultraviolet light, 25° C./60% RH, 3x ICH (3 days), stored open
[12] = Ultraviolet light, 25° C./60% RH, ICH (1 day), stored open
[13] = White light, 25° C./60%, ICH (7 days), stored open

In the case of `CCN(CC)C(=O)c1ccc([C@H](c2cccc(N)c2)N2CCN(Cc3ccc(F)cc3)CC2)cc1` [Form I of the sesquifumarate salt of Compound A1] [4-{(R)-(3-aminophenyl)[4-(4-fluorobenzyl)piperazin-1-yl]methyl}-N,N-diethylbenzamide], the “IDR (intrinsic dissolution rate)” value ([1]; FaSSIF, initial pH 6.51, mean ± SD, n = 2) is reported as 553 μg/min/cm^2, the “IDR (intrinsic dissolution rate)” value ([1]; FaSSIF, initial pH 6.51, mean ± SD, n = 2, listed as Compound A1 Sesquifumarate Salt) is reported as 553 ± 68.9 μg/min/cm^2 and the “IDR (intrinsic dissolution rate)” value ([1]; FeSSIF, initial pH 5.03, mean ± SD, n = 2) is reported as 33.5 μg/min/cm^2. The “IDR (intrinsic dissolution rate)” value ([1]; FeSSIF, initial pH 5.03, mean ± SD, n = 2, listed as Compound A1 Sesquifumarate Salt) was 33.5 ± 1.15 μg/min/cm^2, the “IDR (intrinsic dissolution rate)” value ([1]; SGF, initial pH 1.3) was “too soluble to permit determination of its IDR” and the “Solubility, 3 hr” value [2, 6] was 180 µg/mL. The “Solubility, 24 hr” value [2, 6] was 120 µg/mL, the “Solubility, 3 hr” value [2, 7] was 4400 µg/mL and the “Solubility, 24 hr” value [2, 7] was 4130 µg/mL. For the same compound, the “Solubility, 3 hr” value [2, 8] was 2540 µg/mL, the “Solubility, 24 hr” value [2, 8] was 2660 µg/mL and the “Solubility, 3 hr” value [2, 9] was 17400 µg/mL. For the same compound, the “Solubility, 24 hr” value [2, 9] was 17100 µg/mL, the “moisture content at equilibrium” value [3] was “approximately 4.5%” and the “mean plasma exposures produced by efficacious doses” value [4] was ≥ 2 ng/mL. The “% Purity (after challenge)” value ([5]; 25° C./60% RH, 7 days) was 99.6%, the “% Purity (reference material)” value ([5]; 25° C./60% RH, 7 days) was 104.0% and the “% Purity (after challenge)” value ([5]; 40° C./75% RH, 7 days) was 99.5%. For the same compound, the “% Purity (reference material)” value ([5]; 40° C./75% RH, 7 days) was 103.5%, the “% Purity after 60° C./80% RH, 2 wks” value ([5]; 60° C./80% RH, 2 weeks, HPLC area %) was 86.5% and the “% Purity after 60° C./80% RH, 4 wks” value ([5]; 60° C./80% RH, 4 weeks, HPLC area %) was 80.3%. The “% Purity after 80° C., 2 wks” value ([5]; 80° C., 2 weeks, HPLC area %) was 91.8%, the “% Purity after 80° C., 4 wks” value ([5]; 80° C., 4 weeks, HPLC area %) was 86.1% and the “% Purity (after challenge)” value ([5]; 80° C., 7 days) was 97.1%. The “% Purity (reference material)” value ([5]; 80° C., 7 days) was 99.8%, the “Purity after Photostability 3X ICH conditions” value ([5]; Photostability 3X ICH conditions, HPLC area %) was 93.2% and the “% Purity (after challenge)” value ([5]; Reference, 0 days) was 99.6%. The “% Purity (reference material)” value ([5]; Reference, 0 days) was 100%, the “% Purity (after challenge)” value [5, 10] was 99.6% and the “% Purity (reference material)” value [5, 10] was 100.7%. For the same compound, the “% Purity (after challenge)” value [5, 11] was 99.4%, the “% Purity (reference material)” value [5, 11] was 100.9% and the “% Purity (after challenge)” value [5, 12] was 99.5%. For the same compound, the “% Purity (reference material)” value [5, 12] was 100.2%, the “% Purity (after challenge)” value [5, 13] was 99.5% and the “% Purity (reference material)” value [5, 13] was 101.7%. For the same compound, the “Initial Purity” value ([5]; initial, before storage, HPLC area %) was 98.6%.
